# Entries after “also recorded” stand apart in the source; their conditions may differ.
# What was measured:
# thrombin = settings: administration to a subarachnoid hemorrhage animal model; cited from earlier work
# PAR1 = biological target: T1, PAR1 (Oryctolagus cuniculus, UniProt G1TTP8); test: Effect of PAR1 antagonist on contractile response of rabbit basilar arteries to thrombin (rabbit double-hemorrhage SAH model); type: in vivo
# T1 construct: from tissue; host or cells: rabbit basilar artery (E5555 co-injected with autologous blood into the cistern; artery rings tested ex vivo)
# T1 sequence (G1TTP8 1-460): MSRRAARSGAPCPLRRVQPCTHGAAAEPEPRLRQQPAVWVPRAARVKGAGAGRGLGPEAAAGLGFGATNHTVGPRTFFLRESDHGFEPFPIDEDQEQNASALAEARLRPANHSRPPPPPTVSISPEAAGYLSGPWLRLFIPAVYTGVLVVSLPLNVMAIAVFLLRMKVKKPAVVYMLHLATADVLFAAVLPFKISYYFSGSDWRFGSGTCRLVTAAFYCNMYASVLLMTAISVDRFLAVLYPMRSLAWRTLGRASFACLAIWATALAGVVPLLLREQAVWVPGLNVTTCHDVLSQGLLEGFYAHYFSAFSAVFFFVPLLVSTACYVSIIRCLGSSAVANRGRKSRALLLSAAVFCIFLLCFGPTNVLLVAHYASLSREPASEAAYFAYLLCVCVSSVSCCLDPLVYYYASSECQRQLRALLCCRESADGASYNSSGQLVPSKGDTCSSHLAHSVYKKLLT
# Protocol: (§1) First, 2.5 ml each of autologous arterial blood was injected into the cisterna magnas twice on Days 0 and 2. Hereinafter, this group is also referred to herein as the “SAH group”. Models injected with equal amounts of saline instead of autologous arterial blood constituted the control group. On Day 7, rabbits from each group were euthanized and endotheliums were removed from the dissected basilar arteries to produce ring preparations (500 μm in width) (FIG. 2). The endothelium-removed basilar artery ring preparations produced in this example were used to perform experiments on contractile response in the following examples.
# (§2) Contractile responses to thrombin were determined for the rabbit basilar arteries from the control group and the SAH group. Following contractile response induced by 118 mM K+ depolarization stimulation, the basilar artery ring preparations were stimulated with thrombin. Thrombin is an endogenous ligand of PAR1.
# Contractile responses of the rabbit basilar arteries to thrombin were determined for the control group (sham surgery group), the SAH group and the SAH group coexisting with the PAR1 antagonist. Stimulation was given in the same manner as in Example 3.
# In this example, the “sham surgery group (sham)” (control rabbit) refers to those obtained by injecting 3 ml saline twice into rabbit cisterns on Days 0 and 2, the “SAH group”(subarachnoid hemorrhage model) refers to those obtained by injecting 3 ml autologous blood twice into rabbit cisterns on Days 0 and 2, and the “SAH+E5555 group” (E5555-administered subarachnoid hemorrhage model) refers to those obtained by injecting 3 ml autologous blood supplemented with 600 μg E5555 twice into rabbit cisterns on Days 0 and 2.
# On Day 7, the basilar arteries were removed to assess contractile responses to 118 mM K+ and 1 unit/ml thrombin.
# In the same manner as Example 10, contractile responses of the rabbit basilar arteries to thrombin were determined for the control group (the sham surgery group), the SAH group and the SAH group coexisting with the PAR1 antagonist.
# In this example, 3 ml each of autologous blood supplemented with 60 ng, 600 ng, 6 μg or 60 μg of E5555 was injected twice into rabbit cistern on Days 0 and 2.
# rabbit basilar arteries [1] = test: Effect of heparinized autologous blood on increased contractile response in SAH group; type: in vivo; settings: models injected twice with heparinized autologous blood (SAH+heparin)
# Protocol: as §1
# In order to find out the effect of heparin on this increase in the contractile response, an experiment was conducted according to the method of Example 1 using models that had been injected twice with heparinized autologous blood. Heparin forms a complex with anti-thrombin III and becomes an anticoagulant that inactivates blood coagulation factor.
# rabbit basilar arteries [2] = test: Contractile responses of endothelium-removed rabbit basilar artery ring preparations to thrombin / PAR1-AP
# Protocol: as §1, §2
# Same experiment as Example 3 was performed using PAR1-AP (PAR1-activating peptide) instead of thrombin.
# [3] = tested on: α toxin-skinned basilar arteries; test: Contractile responses of α toxin-skinned basilar arteries to thrombin and PAR1-AP; parameters: species or system rabbit
# Protocol: Alpha toxin is a substance that confers permeability to cell membrane. In a rabbit basilar artery that is treated with α toxin for permeabilization (hereinafter, also referred to as an “a toxin-skinned basilar artery”), contractile response associated with increase in calcium ion concentration and contractile response to GTPγS that activates G protein were measured.
# Next, contractile responses of a toxin-skinned basilar arteries to thrombin and PAR1-AP were measured.
molecule,measurement,setting,value
N=C(N)c1ccc2cc(OC(=O)c3ccc(N=C(N)N)cc3)ccc2c1 [FUT-175],angiospasm,thrombin,suppress angiospasm
CCOc1cc2c(c(F)c1OCC)C(=N)N(CC(=O)c1cc(N3CCOCC3)c(OC)c(C(C)(C)C)c1)C2 [Formula E5555],contractile response of basilar arteries to 1 unit/ml thrombin,"PAR1; SAH+E5555 (6 μg) group: autologous blood supplemented with 6 μg injected twice on Days 0 and 2, vs SAH group",smaller than that for the SAH group
same,contractile response of basilar arteries to 1 unit/ml thrombin,"PAR1; SAH+E5555 (6 μg) group: autologous blood supplemented with 6 μg injected twice on Days 0 and 2, vs SAH group, listed as E5050",significantly suppressed
same,contractile response of basilar arteries to 1 unit/ml thrombin,"PAR1; SAH+E5555 (60 μg) group: autologous blood supplemented with 60 μg injected twice on Days 0 and 2, vs SAH group",significantly suppressed
same,contractile response of basilar arteries to 1 unit/ml thrombin,"PAR1; SAH+E5555 group: 3 ml autologous blood supplemented with 600 μg E5555 injected twice into cisterns on Days 0 and 2, arteries removed Day 7, n=3",contraction by 1 unit/ml thrombin was small; also recorded: significantly suppressed the increased reactivity to thrombin
same,dose of E5555 suppressing increased reactivity to thrombin caused by subarachnoid hemorrhage (dose-dependent),"PAR1; co-administration with autologous blood, 60 ng to 60 μg tested, 1 unit/ml thrombin",≥ 60 ng
anti-thrombin III,angiospasm,thrombin,suppress angiospasm
heparin,increasement in the contractile response to PAR1-AP,rabbit basilar arteries [1],decreased significantly
same,contractile response to thrombin,rabbit basilar arteries [1]; thrombin 1 unit/nil,41.6±3.0%
thrombin,concentration from which significant continuous contraction is induced,rabbit basilar arteries [2]; SAH group,≥ 0.3 units/ml
same,reversibility of contractile response on washing,"rabbit basilar arteries [2]; SAH group, Day 7, 1 unit/ml thrombin or 100 μM PAR1-AP",not changed by washing
same,contractile force (% of 118 mM K+-induced contraction),"rabbit basilar arteries [2]; SAH group, thrombin 1 unit/ml",73.1±2.8%
same,contraction,"rabbit basilar arteries [2]; control group, thrombin 1 unit/ml",did not induce contraction
same,contractile force (% of 118 mM K+-induced contraction),"rabbit basilar arteries [2]; control group, thrombin 10 units/ml, mild temporary contraction",21.3±1.2%
same,effect on contractile response induced by calcium ion,[3]; SAH group,significantly increased
same,effect on contractile response induced by calcium ion,[3]; control group,had no effect

# — US20100063048A1, “Remedy for angiospasm accompanying subarachnoid hemorrhage containing thrombin receptor antagonist as the active ingredient” (Eisai R&D Mangement Co., Ltd., priority 2004, published 2010)
